# Source: PubChem BioAssay AID330 (DTP/NCI, 2004)
# Inconclusive results and toxic doses are left out.
# System: P388 leukemia ip, CD2F1 mice, survival T/C
# Assay: NCI In Vivo Anticancer Drug Screen. Data for tumor model P388 Leukemia (intraperitoneal) in CD2F1 (CDF1) mice
# Conditions: endpoint: median survival time, higher = longer survival
# Summary of the method: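 Mice carrying the transplanted tumor received test compound or vehicle. Survival was recorded in each group, and the value is the treated-group measurement divided by that of the vehicle-treated control group.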
# [1] = dose: 50.0 mg/kg/injection, schedule: Q01DX005 (ip), vehicle: saline with Tween-80
# [2] = dose: 100.0 mg/kg/injection, schedule: Q01DX005 (ip), vehicle: saline with Tween-80
structure (smiles),measurement,setting,value
O=C(Oc1c(OC(=O)c2ccccc2)c(OC(=O)c2ccccc2)c(OC(=O)c2ccccc2)c(OC(=O)c2ccccc2)c1OC(=O)c1ccccc1)c1ccccc1,T/C,"dose: 100.0 mg/kg/injection, schedule: Q04DX002 (ip), vehicle: saline with Tween-80",107 % of control
same,T/C,"dose: 200.0 mg/kg/injection, schedule: Q04DX002 (ip), vehicle: saline with Tween-80",94 % of control
same,T/C,"dose: 400.0 mg/kg/injection, schedule: Q04DX002 (ip), vehicle: saline with Tween-80",89 % of control
COC(=O)c1nc2nnc(NC(=O)Nc3ccc(Cl)cc3)n2c(-c2ccccc2)c1C,T/C,"dose: 60.0 mg/kg/injection, schedule: Q01DX005 (ip), vehicle: saline with Tween-80",96 % of control
same,T/C,"dose: 120.0 mg/kg/injection, schedule: Q01DX005 (ip), vehicle: saline with Tween-80",95 % of control
CN(O)C1(/C(N)=N/O)C(C2COC(C)(C)O2)OC2OC(C)(C)OC21 (stereo not given),T/C,"dose: 100.0 mg/kg/injection, schedule: Q04DX002 (ip), vehicle: Klucel (hydroxypropylcellulose) (HPC)",106 % of control
same,T/C,"dose: 200.0 mg/kg/injection, schedule: Q04DX002 (ip), vehicle: Klucel (hydroxypropylcellulose) (HPC)",106 % of control
same,T/C,"dose: 400.0 mg/kg/injection, schedule: Q04DX002 (ip), vehicle: Klucel (hydroxypropylcellulose) (HPC)",105 % of control
CS(C)=Nc1ccc([N+](=O)[O-])cc1,T/C,"dose: 100.0 mg/kg/injection, schedule: Q01DX001 (ip), vehicle: Klucel (hydroxypropylcellulose) (HPC)",109 % of control
same,T/C,"dose: 200.0 mg/kg/injection, schedule: Q01DX001 (ip), vehicle: Klucel (hydroxypropylcellulose) (HPC)",100 % of control
Cn1c2c(c(=O)n(C)c1=O)CN(Cc1ccccc1)CN2,T/C,[1],95 % of control
same,T/C,[2],95 % of control
same,T/C,"dose: 200.0 mg/kg/injection, schedule: Q01DX005 (ip), vehicle: saline with Tween-80",100 % of control
CCOC(=O)C(CCC(C)(C)SCc1ccccc1)(NC(C)=O)C(=O)OCC,T/C,"dose: 50.0 mg/kg/injection, schedule: Q01DX009 (ip), vehicle: saline with Tween-80",91 % of control
same,T/C,"dose: 100.0 mg/kg/injection, schedule: Q01DX009 (ip), vehicle: saline with Tween-80",91 % of control
same,T/C,"dose: 200.0 mg/kg/injection, schedule: Q01DX009 (ip), vehicle: saline with Tween-80",86 % of control
Cc1nc2sc3c(c2c(=N)n1N)CCCC3,T/C,"dose: 12.5 mg/kg/injection, schedule: Q01DX001 (ip), vehicle: Klucel (hydroxypropylcellulose) (HPC)",103 % of control
same,T/C,"dose: 25.0 mg/kg/injection, schedule: Q01DX001 (ip), vehicle: Klucel (hydroxypropylcellulose) (HPC)",97 % of control
N#CCCP(=O)(O)CCC#N,T/C,"dose: 60.0 mg/kg/injection, schedule: Q01DX005 (ip), vehicle: saline",100 % of control
same,T/C,"dose: 120.0 mg/kg/injection, schedule: Q01DX005 (ip), vehicle: saline",100 % of control
same,T/C,"dose: 240.0 mg/kg/injection, schedule: Q01DX005 (ip), vehicle: saline",90 % of control
c1cc[n+](Cc2c3ccccc3cc3c2ccc2ccccc23)cc1,T/C,"dose: 6.25 mg/kg/injection, schedule: Q01DX005 (ip), vehicle: Klucel (hydroxypropylcellulose) (HPC)",112 % of control
same,T/C,"dose: 12.5 mg/kg/injection, schedule: Q01DX005 (ip), vehicle: Klucel (hydroxypropylcellulose) (HPC)",112 % of control
same,T/C,"dose: 25.0 mg/kg/injection, schedule: Q01DX005 (ip), vehicle: Klucel (hydroxypropylcellulose) (HPC)",110 % of control
FC(F)(F)C1(C(F)(F)F)O[Si]2(OC(C(F)(F)F)(C(F)(F)F)c3ccccc32)c2ccccc21,T/C,"dose: 25.0 mg/kg/injection, schedule: Q01DX005 (ip), vehicle: distilled water + Tween-80 + alcohol",97 % of control
same,T/C,"dose: 25.0 mg/kg/injection, schedule: Q01DX005 (ip), vehicle: saline with Tween-80",105 % of control
same,T/C,"dose: 50.0 mg/kg/injection, schedule: Q01DX005 (ip), vehicle: distilled water + Tween-80 + alcohol",96 % of control
same,T/C,[1],103 % of control
same,T/C,[2],105 % of control
CCSC(C(O)C(O)C(O)C(O)CO)n1cnc2c(SC)ncnc21 (stereo not given),T/C,"dose: 25.0 mg/kg/injection, schedule: Q01DX009 (ip), vehicle: water",99 % of control
same,T/C,"dose: 50.0 mg/kg/injection, schedule: Q01DX009 (ip), vehicle: water",95 % of control
same,T/C,"dose: 100.0 mg/kg/injection, schedule: Q01DX009 (ip), vehicle: water",94 % of control
same,T/C,"dose: 200.0 mg/kg/injection, schedule: Q01DX009 (ip), vehicle: water",99 % of control
same,T/C,"dose: 400.0 mg/kg/injection, schedule: Q01DX009 (ip), vehicle: water",97 % of control
CCCCCCCCCCCCCCCCCC(=O)[O][Sn]([CH2]CCC)([CH2]CCC)[O]C(=O)CCCCCCCCCCCCCCCCC,T/C,"dose: 2.66 mg/kg/injection, schedule: Q04DX003 (ip), vehicle: other",109 % of control
same,T/C,"dose: 4.0 mg/kg/injection, schedule: Q04DX003 (ip), vehicle: other",106 % of control
same,T/C,"dose: 6.0 mg/kg/injection, schedule: Q04DX003 (ip), vehicle: other",109 % of control
same,T/C,"dose: 9.0 mg/kg/injection, schedule: Q04DX003 (ip), vehicle: other",110 % of control
O=S(=O)(O)CC[S][Sn]([S]CCS(=O)(=O)O)([c]1ccccc1)[c]1ccccc1 (tested in a mixture with another compound),T/C,"dose: 1.87 mg/kg/injection, schedule: Q01DX005 (ip), vehicle: Klucel (hydroxypropylcellulose) (HPC)",121 % of control
same,T/C,"dose: 3.75 mg/kg/injection, schedule: Q01DX005 (ip), vehicle: Klucel (hydroxypropylcellulose) (HPC)",152 % of control
